“And” between values parts separate entries of the source, which are not always exact repeats. Identical values can stand only once.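 In this assay, cells in 96-well plates receive the compound at five concentrations for 48 hours. Endpoints are linearly interpolated between the surrounding concentrations. Here, GI50 denotes the concentration required for 50% inhibition of growth. TGI: concentration producing complete growth inhibition.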
How the values were obtained:
Test in all cases: NCI tumour cell line growth inhibition, 48 h
MDA-N = tested on: MDA-N
DLD-1 colon = tested on: DLD-1 colon
KM20L2 colon = tested on: KM20L2 colon
XF 498 CNS = tested on: XF 498 CNS
SNB-78 CNS = tested on: SNB-78 CNS
SN12K1 renal = tested on: SN12K1 renal
P388/ADR leukemia = tested on: P388/ADR leukemia
DMS 273 small cell lung = tested on: DMS 273 small cell lung
P388 leukemia = tested on: P388 leukemia
HOP-18 NSCLC = tested on: HOP-18 NSCLC
DMS 114 small cell lung = tested on: DMS 114 small cell lung
RXF-631 renal = tested on: RXF-631 renal

Row | SMILES | TGI (DLD-1 colon) | TGI (KM20L2 colon) | TGI (XF 498 CNS) [µM] | TGI (SNB-78 CNS) | TGI (DMS 273 small cell lung) | TGI (HOP-18 NSCLC) | TGI (DMS 114 small cell lung) | TGI (RXF-631 renal) [µM] | further results
1 | O=C1NC(=O)C2C3C=CC(C12)C1C2C(=O)NC(=O)C2C31 (centres undefined) | 250 µM | 250 µM | 244 | 250 µM | 250 µM | 98.8 µM and 250 µM | 233 µM |  | GI50 (MDA-N): 193 µM; TGI (MDA-N): 250 µM and > 1000 µM; GI50 (DLD-1 colon): 39 µM; TGI (SN12K1 renal): 250 µM; TGI (P388/ADR leukemia): 250 µM; TGI (P388 leukemia): 228 µM; GI50 (HOP-18 NSCLC): > 63.3 µM; GI50 (DMS 114 small cell lung): > 60.5 µM
2 | COc1ccc2cc3n(c(=O)c2c1)CCc1c-3cc(OC)c(OC)c1OC | > 100 µM | > 100 µM | > 100 | > 100 µM | > 100 µM | > 100 µM | > 100 µM |  | 
3 | COc1nc(N)nc2nc[nH]c12 | 500 µM and 800 µM | > 800 µM | 498 | 500 µM and 800 µM | 500 µM and > 800 µM | 499 µM and 800 µM | 500 µM and > 800 µM | 800 | GI50 (MDA-N): 760 µM; TGI (MDA-N): > 1000 µM; GI50 (DLD-1 colon): 655 µM; GI50 (KM20L2 colon): > 800 µM; GI50 (SNB-78 CNS): 684 µM; TGI (SN12K1 renal): 500 µM; TGI (P388/ADR leukemia): 500 µM; GI50 (DMS 273 small cell lung): > 800 µM; TGI (P388 leukemia): 500 µM; GI50 (HOP-18 NSCLC): 641 µM; GI50 (DMS 114 small cell lung): > 800 µM
4 | C=C(C)c1nc(Oc2ccccc2)nc(Oc2ccccc2)n1 | 6.62 µM | 26.7 µM | 13 | 26.8 µM | 19.7 µM | 30.2 µM | 8.79 µM | 13.5 | TGI (MDA-N): 14.8 µM; TGI (SN12K1 renal): 8.88 µM; TGI (P388/ADR leukemia): 2.7 µM; TGI (P388 leukemia): 3.63 µM
5 | Nc1ccccc1C(=O)/C=C/c1ccccc1O | > 100 µM | > 100 µM | > 100 | > 100 µM |  | > 100 µM | > 100 µM | > 100 | 
6 | CC(C)(C)C1CC[C@H]2c3c([nH]c4ccccc34)[C@H]3C(=O)N(c4ccc(F)cc4)C(=O)[C@H]3[C@H]2C1 (some centres undefined) | 37.4 µM | 46.5 µM | 32.3 | 36.8 µM | 33.3 µM | 34.4 µM | 38 µM |  | 
7 | COC1=CC(=O)C(O)=C(CC2(C)C(C)CCC3(C)C2CCCC3(C)C)C1=O (centres undefined) | 45.1 µM | 13.2 µM | 22.4 | > 100 µM | 18.3 µM | 13 µM | 8.99 µM | > 100 | 
8 | CC(C)(C)C1CCC(O)(c2ccccc2)CC1 (centres undefined) | > 100 µM and 75.5 µM | > 100 µM and 31.7 µM | 22.9 | > 100 µM and 57 µM | > 100 µM and 33.6 µM | > 100 µM | > 100 µM and 52.5 µM |  | 
9 | CC1(C)CC(=O)C(C(=O)Nc2cccs2)=C(O)C1 | > 100 µM | > 100 µM | 82.7 | > 100 µM | 82 µM | > 100 µM |  | > 100 | 
10 | CNS(=O)(=O)NNS(=O)(=O)c1ccc(C)cc1 | > 100 µM | > 100 µM |  |  |  |  | > 100 µM |  | 
11 | CN(C)c1ccc(/C=c2/sc3nc(=O)c(-c4ccccc4NC(=O)C(F)(F)F)nn3c2=O)cc1 | > 100 µM |  | > 100 | > 100 µM | > 100 µM |  | 57.2 µM |  | 
12 | CC(C)(C)c1ccc(OCCOCCOc2ccc(C(C)(C)C)cc2S(N)(=O)=O)c(S(N)(=O)=O)c1 | > 100 µM |  |  | > 100 µM | > 100 µM | > 100 µM | > 100 µM | > 100 | 
13 | N#Cc1c(CC(=O)O)cc(=O)n2c1[nH]c1ccccc12 | > 100 µM | > 100 µM |  | > 100 µM | > 100 µM |  | > 100 µM |  | 
14 | O=C(/C=C(\[O-])c1ccccc1)CCCCCCC(=O)/C=C(\[O-])c1ccccc1.O=C(/C=C(\[O-])c1ccccc1)CCCCCCC(=O)/C=C(\[O-])c1ccccc1.O=C(/C=C(\[O-])c1ccccc1)CCCCCCC(=O)/C=C(\[O-])c1ccccc1.[Y+3].[Y+3] |  | > 50 µM |  |  |  |  |  |  | GI50 (KM20L2 colon): > 50 µM
15 | CCCCCNC(=O)CCCCCCCCCCCNC(=O)CCCCCCCCCCN1C=CC(=CC=C2C=CC(=O)C=C2)C=C1 | > 100 µM | > 100 µM | > 100 | 96.9 µM | > 100 µM |  | > 100 µM | > 100 | 
16 | O=C(CC1(O)C(=O)Nc2c(Cl)ccc(Cl)c21)c1ccc(Cl)cc1 (centres undefined) | > 100 µM | > 100 µM | 39.9 | > 100 µM | 73.5 µM | > 100 µM | 49.2 µM | 64.3 | 
17 | O=C1c2ccccc2N1C(=O)c1ccccc1[N+](=O)[O-] |  |  |  |  |  |  |  |  | TGI (MDA-N): > 100 µM

Row | SMILES | TGI (DLD-1 colon) | TGI (KM20L2 colon) | TGI (XF 498 CNS) [µM] | TGI (SNB-78 CNS) | TGI (DMS 273 small cell lung) | TGI (HOP-18 NSCLC) | TGI (DMS 114 small cell lung) | TGI (RXF-631 renal) [µM] | further results
18 | COC(=O)C1CC(=O)O[C@H]1c1ccc(OC)c(OC)c1 (some centres undefined) | > 100 µM | > 100 µM | > 100 | > 100 µM | > 100 µM | > 100 µM | > 100 µM | > 100 | 
19 | O=C1c2ccccc2C2(O)N(c3ccccc3)C(=S)N(c3ccccc3)C12O (centres undefined) | > 100 µM | > 100 µM |  | > 100 µM | > 100 µM | > 100 µM | > 100 µM | > 100 | 
20 | NS(=O)(=O)c1cc2c(cc1Cl)NCNS2(=O)=O |  |  |  |  |  |  |  |  | TGI (MDA-N): > 100 µM
21 | O=C1NC(c2ccccc2Cl)Nc2ccccc21 (centres undefined) |  |  |  |  |  |  |  |  | TGI (MDA-N): 3.29 µM
22 | COc1ccc(C(C)Nc2cc(OC)c(OC)c(OC)c2)cc1 (centres undefined) | > 100 µM | 7.3 µM | > 26.4 | 17.6 µM | > 100 µM | > 100 µM |  |  | 
23 | CN(C)c1ccc(/C=C2\CCc3ccccc3C2=O)cc1Br | > 100 µM | > 100 µM | > 100 | > 100 µM | > 100 µM | > 100 µM |  |  | 
24 | CC(=O)NC(CCCNC(=O)OCc1ccccc1)C(=O)NCc1ccccc1 (centres undefined) | > 100 µM | > 100 µM | > 100 |  | > 100 µM |  | > 100 µM |  | 
25 | N#CC1(CCCCl)CCCCC1 | > 100 µM | > 100 µM | > 100 | > 100 µM | > 100 µM | > 100 µM | > 100 µM | > 100 | 
26 | CC(C)CCCC(C)C1CCC2C3CC([N+](=O)[O-])=C4CC(O)CCC4(C)C3CCC12C (centres undefined) | 35.9 µM | 34.7 µM | 37.1 |  | 27.2 µM |  | 45.7 µM |  | 
27 | Cc1ccccc1NC(=O)CC(=O)NNCC(=O)Nc1nnc(-c2ccccc2)s1 | > 100 µM | > 100 µM | > 100 | > 100 µM | > 100 µM | 96.2 µM | > 100 µM | > 100 | 
28 | COC(=O)N/N=C(\C)c1sc(-c2nc(C)c(/C(C)=N/NC(=O)OC)s2)nc1C | > 100 µM | > 100 µM |  | > 100 µM | > 100 µM | > 100 µM | > 100 µM | > 100 | 
29 | CCOC(=O)C1C(NC(N)=O)N(Cc2ccccc2)C(=O)N1Cc1ccccc1 (centres undefined) | > 100 µM | > 100 µM | > 100 | 29.2 µM | > 100 µM | > 100 µM | > 100 µM | > 100 | 
30 | O=[N+]([O-])c1ccc(/C=C/c2ccc(/C=C/c3ccc([N+](=O)[O-])cc3[N+](=O)[O-])cc2)c([N+](=O)[O-])c1 | > 100 µM | > 100 µM | > 100 | > 100 µM | > 100 µM |  | > 100 µM |  | 
31 | N=C(N)SCc1ccc(Cl)c2ccccc12 (tested in a mixture with another compound) |  |  |  |  |  |  |  |  | TGI (MDA-N): 23.4 µM and 24.8 µM
32 | ON1CCc2c([nH]c3ccccc23)C1c1ccc(Cl)cc1 (centres undefined) | > 100 µM | 77.5 µM | 57.6 | > 100 µM | 97.4 µM |  | > 100 µM |  | 
33 | C/C(=C\c1ccccc1)C(O)C(=O)c1nc2ccc(Cl)cc2[nH]c1=O (centres undefined) | > 100 µM | > 100 µM | > 100 | > 100 µM | > 100 µM |  | > 100 µM |  | 
34 | O=C(CC1(O)C(=O)Nc2c(Cl)cc(Cl)cc21)c1cccc([N+](=O)[O-])c1 (centres undefined) | > 100 µM | > 100 µM | 37.3 | > 100 µM | > 100 µM | 98.6 µM | 43.3 µM | 92.1 | TGI (MDA-N): 34.6 µM

Reference: PubChem BioAssay (NCI)
